Measured values reported in PubChem BioAssay (NCI).
Where “and” joins values, the source holds several entries; their conditions need not be identical. Equal values may be shown once.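 Protocol summary: plate cells (96-well), add compound at 5 concentrations, incubate 48 h, interpolate endpoints linearly. Abbreviation: GI50, concentration required for 50% inhibition of growth. TGI denotes the concentration required for complete inhibition of growth.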 Where a SMILES comes first, the peptide text is derived from it. The star is where a group is joined. Boc = CC(C)(C)OC(=O)*; tBu = CC(C)(C)*

Tests used:
Assay in all cases: NCI anticancer screen, dose series, 48 h
CAKI-1 renal = tested on: CAKI-1 renal
EKVX NSCLC = tested on: EKVX NSCLC
HCT-116 colon = tested on: HCT-116 colon
M14 melanoma = tested on: M14 melanoma
NCI-H522 lung = tested on: NCI-H522 lung
RPMI-8226 leukemia = tested on: RPMI-8226 leukemia
T-47D breast = tested on: T-47D breast
U251 CNS = tested on: U251 CNS
UACC-62 melanoma = tested on: UACC-62 melanoma
DU-145 prostate = tested on: DU-145 prostate

SMILES | TGI (CAKI-1 renal) | TGI (EKVX NSCLC) | TGI (HCT-116 colon) | TGI (M14 melanoma) | TGI (NCI-H522 lung) | TGI (RPMI-8226 leukemia) | TGI (T-47D breast) | TGI (U251 CNS) | TGI (UACC-62 melanoma) | TGI (DU-145 prostate) | GI50 (M14 melanoma)
Cc1cc(OC(=O)Nc2ccc(Cl)cc2)ccc1C(=S)Nc1ccccc1 | > 100 µM | > 100 µM | > 100 µM | > 100 µM | > 100 µM | > 100 µM | > 100 µM | > 100 µM | > 100 µM |  | 
C/C(=N\Nc1nc2ccccc2n1C)c1ccc2ccccc2n1 | 4.51 µM | 4.3 µM | 7.03 µM | 4.91 µM | 19.6 µM |  |  | > 43.6 µM | 9.79 µM | 14.5 µM | 
COc1ccc(/C=N/n2c(Cc3ccccc3)n[nH]c2=O)cc1 | > 100 µM | > 100 µM | > 100 µM | > 100 µM |  | > 100 µM | > 100 µM | > 100 µM | > 100 µM | > 100 µM | 
Clc1cccc(C2SCc3nc4ccccc4n32)c1 (stereo unspecified) | > 100 µM | 52.4 µM |  | 50.5 µM | 29.5 µM | > 100 µM |  | 33 µM | 36.5 µM |  | 
CC(=O)Nc1cc(/C=C\C(=O)N2CC(CCl)c3c2cc(N)c2ccccc32)n(C)n1 (stereo unspecified) | 0.0223 µM |  |  |  |  | 0.0577 µM and 0.0242 µM |  | 1.23 µM and 3.23 µM | 0.0284 µM | > 100 µM | 0.0138 µM
Nc1c(C(=O)c2ccccc2)nnc2ccccc12 | > 100 µM | > 100 µM | 71.6 µM | > 100 µM |  | > 100 µM |  | > 100 µM | 45 µM | 69.9 µM | 
CC1=NN(C(=O)c2ccc(C)cc2)C(=O)C1N=Nc1ccccc1C(=O)O (stereo unspecified) | > 100 µM | > 100 µM | > 100 µM |  | > 100 µM | > 100 µM |  | > 100 µM | > 100 µM |  | 
Nc1ncc(Sc2ccccc2C(=O)O)s1 | > 100 µM | > 100 µM | > 100 µM | > 100 µM |  | > 100 µM | > 100 µM | > 100 µM | > 100 µM | > 100 µM | 
CCN(CC)C(=S)S |  | > 100 µM | 19.7 µM | > 59.8 µM | 0.362 µM | > 100 µM |  |  | 12.3 µM |  | 
CCN(CC)Cc1ccc(Nc2c3ccccc3nc3ccccc23)cc1 | 4.66 µM | 26.2 µM | 6.99 µM | 3.15 µM | 3.56 µM |  | 16.7 µM | 6.68 µM | 3.66 µM | 7.01 µM | 
CCOC(=O)C(C)(Cc1ccc(O)cn1)NC(=O)c1ccccc1 (stereo unspecified) | > 100 µM | > 100 µM | > 100 µM | > 100 µM | > 100 µM | > 100 µM |  | > 100 µM | > 100 µM | > 100 µM | 
Clc1ccc(-c2nnc(-c3nsc4ccccc34)o2)cc1 |  | > 100 µM | 42.9 µM | > 100 µM |  | > 100 µM |  | 33.5 µM | > 100 µM |  | 
Cc1ccc(C=C(C(=O)O)C(=O)O)o1 | > 100 µM | > 100 µM | > 100 µM | > 100 µM | > 100 µM | > 100 µM |  | > 100 µM | > 100 µM | > 100 µM | 
CC1(CCCCO)C=CC(S(=O)(=O)c2ccccc2)CC1 (stereo unspecified) | 23.9 µM | 18 µM | 12.6 µM | 12.2 µM | 10.4 µM | 11 µM |  | 21.5 µM | 18.3 µM | 17.7 µM | 
O=C1CC(=O)NC(=NN2C(=O)/C(=C/c3ccc(Cl)cc3)N=C2c2ccccc2)N1 | > 100 µM |  | 30.7 µM | 29.3 µM | 23.5 µM | 58.2 µM | > 100 µM | 33 µM | 25.6 µM | > 100 µM | 
O=C(O)c1ccccc1CC(Cc1ccccc1)C(=O)O (stereo unspecified) | > 100 µM | > 100 µM | > 100 µM | > 100 µM | > 100 µM | > 100 µM | > 100 µM | > 100 µM |  | > 100 µM | 
CCOC(=O)[C@H]1Nc2c(cccc2[N+](=O)[O-])C2c3ccccc3CC21 (stereo partly specified) | > 100 µM |  | > 100 µM | > 100 µM | > 100 µM | > 100 µM |  | > 100 µM | > 100 µM |  | 
CC(OC(C)(C)C)C(NC(=O)C(N)CCCCNC(=O)OC(C)(C)C)C(=O)NC(Cc1ccccc1)C(=O)O (stereo unspecified) (H-Lys(Boc)-Thr(tBu)-Phe-OH; configuration not given here) | > 100 µM | > 100 µM | > 100 µM | > 100 µM |  | > 100 µM | > 100 µM | > 100 µM | > 100 µM | > 100 µM | 
COc1cc(S(=O)(=O)Nc2ccc(-c3csc(/N=C\c4cccs4)n3)cc2)ccc1Cl | > 100 µM | > 100 µM | > 100 µM | > 100 µM | > 100 µM | > 100 µM | 62.8 µM |  | 92.2 µM | > 100 µM | 
O=C1c2ccccc2/C=C\C(c2ccccc2)=N/N1c1ccccc1Cl | 54.5 µM | > 100 µM | > 100 µM | 51.2 µM | 35.8 µM | 80.5 µM |  | 63.5 µM |  | > 100 µM | 
Cn1cnnc1SC(F)(F)c1nc2ccccc2o1 | > 100 µM |  | > 100 µM | > 100 µM | > 100 µM | > 100 µM | > 100 µM | > 100 µM | > 100 µM | > 100 µM | 
N/C(=N\N=C/c1cc([N+](=O)[O-])cc([N+](=O)[O-])c1O)NO | > 100 µM | > 100 µM | > 100 µM |  | > 100 µM | > 100 µM |  | > 100 µM | > 31.1 µM |  | 
COC(=O)C1(Cc2ccccc2)Cc2c(C)ccc(C)c2C1=O (stereo unspecified) |  | > 100 µM | > 100 µM | 98.8 µM | 56.2 µM | 75.4 µM | > 100 µM | > 100 µM | 54.8 µM | > 100 µM | 
Brc1ccc(-c2nc(-c3ccc(Br)cc3)n(-c3ccccc3)n2)cc1 | > 100 µM | > 100 µM | > 100 µM | > 100 µM | > 100 µM |  | > 100 µM | > 100 µM | > 100 µM | > 100 µM | 
